From the supplement of paper PMC10307832

Compound: COC1=CC=C(C=C1)COC2=C(C=C(C=C2)CC3=CN=C(N=C3N)N)OC [GW-2580] + Cc1cc(Nc2cc(N3CCN(C)CC3)nc(Sc3ccc(NC(=O)C4CC4)cc3)n2)n[nH]1 [Tozasertib] (partner 0.1 µM)
Test: relative viability (nuclei count vs DMSO), 5 days (fraction); higher = more cells survive
Settings: first compound 2.53 µM
How it was run: (§1)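 Cells from lung cancer lines were seeded into 1536-well plates and, one day later, dosed by pin tool. Treatments were either a single drug or a fixed dose of an anchor drug with five library-drug doses (not always all listed) in √10 steps. After 5 days, nuclei were stained in a one-step fixation (final 0.05% Triton X-100, 1% formaldehyde, 1 ug/ml Hoechst) and counted on 4× images, and relative viability is the treated-to-vehicle nuclei ratio, as the median of duplicate plates.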

| Cell Line | relative viability |
| --- | --- |
| NCI-H2170 | 0.777 |
| NCI-H2405 | 0.656 |
| HOP-62 | 0.333 |
| LU99A | 0.23 |
| BEN | 0.577 |
| HARA | 0.0978 |
| SW 900 | 0.6 |
| NCI-H322M | 0.476 |
| LCLC-97TM1 | 0.154 |
| A-427 | 0.19 |
| NCI-H441 | 0.584 |
| NCI-H1734 | 0.277 |
| NCI-H460 | 0.422 |
| NCI-H2347 | 0.508 |
| NCI-H1395 | 0.658 |
| 201T | 0.96 |
| NCI-H1915 | 0.489 |
| HCC-827 | 0.47 |
| LXF-289 | 0.161 |
| NCI-H23 | 0.392 |
| NCI-H647 | 0.418 |
| CAL-12T | 0.349 |
| NCI-H1651 | 0.702 |
| NCI-H1355 | 0.396 |
| NCI-H3122 | 0.468 |
| NCI-H1437 | 0.405 |
| NCI-H1755 | 0.523 |
| HCC-15 | 0.615 |
| NCI-H1793 | 0.281 |
| PC-14 | 0.514 |

Same assay, conditions: first compound 8 µM

| Cell Line | relative viability |
| --- | --- |
| NCI-H2170 | 0.677 |
| NCI-H2405 | 0.524 |
| HOP-62 | 0.326 |
| LU99A | 0.235 |
| BEN | 0.492 |
| HARA | 0.0792 |
| SW 900 | 0.559 |
| NCI-H322M | 0.593 |
| LCLC-97TM1 | 0.261 |
| A-427 | 0.172 |
| NCI-H441 | 0.655 |
| NCI-H1734 | 0.252 |
| NCI-H460 | 0.33 |
| NCI-H2347 | 0.401 |
| NCI-H1395 | 0.734 |
| 201T | 0.82 |

| Cell Line | relative viability |
| --- | --- |
| NCI-H1915 | 0.387 |
| HCC-827 | 0.371 |
| LXF-289 | 0.157 |
| NCI-H23 | 0.31 |
| NCI-H647 | 0.189 |
| CAL-12T | 0.297 |
| NCI-H1651 | 0.569 |
| EPLC-272H | 0.214 |
| NCI-H1355 | 0.477 |
| NCI-H3122 | 0.362 |
| NCI-H1437 | 0.291 |
| NCI-H1755 | 0.538 |
| HCC-15 | 0.222 |
| NCI-H1793 | 0.307 |
| PC-14 | 0.468 |

Compound: COC1=CC=C(C=C1)COC2=C(C=C(C=C2)CC3=CN=C(N=C3N)N)OC [GW-2580] + NC(=O)Nc1cc(-c2cccc(F)c2)sc1C(=O)N[C@H]1CCCNC1 [AZD7762] (partner 0.2 µM)
Test: as above
Settings: first compound 0.08 µM
How it was run: as §1

| Cell Line | relative viability |
| --- | --- |
| NCI-H2170 | 0.982 |
| NCI-H2405 | 0.793 |
| HOP-62 | 0.664 |
| LU99A | 0.509 |
| BEN | 0.642 |
| HARA | 0.302 |
| SW 900 | 0.68 |
| NCI-H322M | 0.508 |
| LCLC-97TM1 | 0.2 |
| A-427 | 0.753 |
| NCI-H441 | 1.13 |
| NCI-H1734 | 0.543 |
| NCI-H460 | 0.595 |
| NCI-H2347 | 0.852 |
| NCI-H1395 | 0.421 |
| 201T | 0.575 |

| Cell Line | relative viability |
| --- | --- |
| NCI-H1915 | 0.772 |
| HCC-827 | 0.207 |
| LXF-289 | 1.17 |
| NCI-H23 | 0.264 |
| NCI-H647 | 0.567 |
| CAL-12T | 0.639 |
| NCI-H1651 | 0.452 |
| EPLC-272H | 0.221 |
| NCI-H1355 | 0.807 |
| NCI-H3122 | 1.01 |
| NCI-H1437 | 1.11 |
| NCI-H1755 | 0.483 |
| HCC-15 | 1.02 |
| NCI-H1793 | 0.587 |
| PC-14 | 0.47 |

Same assay, conditions: first compound 0.8 µM

| Cell Line | relative viability |
| --- | --- |
| NCI-H2170 | 0.864 |
| NCI-H2405 | 0.712 |
| HOP-62 | 0.74 |
| LU99A | 0.315 |
| BEN | 0.809 |
| HARA | 0.252 |
| SW 900 | 0.616 |
| NCI-H322M | 0.706 |
| LCLC-97TM1 | 0.285 |
| A-427 | 0.668 |
| NCI-H441 | 1.26 |
| NCI-H1734 | 0.558 |
| NCI-H460 | 0.714 |
| NCI-H2347 | 0.855 |
| NCI-H1395 | 0.377 |
| 201T | 0.579 |

| Cell Line | relative viability |
| --- | --- |
| NCI-H1915 | 0.708 |
| HCC-827 | 0.244 |
| LXF-289 | 1.2 |
| NCI-H23 | 0.21 |
| NCI-H647 | 0.621 |
| CAL-12T | 0.737 |
| NCI-H1651 | 0.53 |
| EPLC-272H | 0.315 |
| NCI-H1355 | 0.767 |
| NCI-H3122 | 1.02 |
| NCI-H1437 | 1.09 |
| NCI-H1755 | 0.486 |
| HCC-15 | 1.44 |
| NCI-H1793 | 0.382 |
| PC-14 | 0.484 |

Same assay, conditions: first compound 2.53 µM

| Cell Line | relative viability |
| --- | --- |
| NCI-H2170 | 0.723 |
| NCI-H2405 | 0.703 |
| HOP-62 | 0.571 |
| LU99A | 0.267 |
| BEN | 0.599 |
| HARA | 0.294 |
| SW 900 | 0.574 |
| NCI-H322M | 0.598 |
| LCLC-97TM1 | 0.281 |
| A-427 | 0.568 |
| NCI-H441 | 1.06 |
| NCI-H1734 | 0.481 |
| NCI-H460 | 0.383 |
| NCI-H2347 | 0.636 |
| NCI-H1395 | 0.422 |
| 201T | 0.583 |
| NCI-H1915 | 0.692 |
| HCC-827 | 0.201 |
| LXF-289 | 1.07 |
| NCI-H23 | 0.243 |
| NCI-H647 | 0.326 |
| CAL-12T | 0.602 |
| NCI-H1651 | 0.535 |
| NCI-H1355 | 0.566 |
| NCI-H3122 | 1.06 |
| NCI-H1437 | 1.04 |
| NCI-H1755 | 0.448 |
| HCC-15 | 1.21 |
| NCI-H1793 | 0.266 |
| PC-14 | 0.271 |

Same assay, conditions: first compound 8 µM

| Cell Line | relative viability |
| --- | --- |
| NCI-H2170 | 0.837 |
